Here are results for one compound from patent publication US4309559A, “Sulphonamides useful as pesticides” (FBC Limited, priority 1977, dated 1982).

The test system of one assay is Peas (Pisum sativum). Briefly: Post-emergence foliar spray, herbicidal/growth regulant response, peas. It is filed as in vivo. The settings on record: Lathyrus oleraceus, 168 h, foliar spray 11.2 kg/ha, 7 days, 0=no effect, 100=complete kill, read-out: herbicidal or growth regulant response index. The essentials: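 Post-emergence treatment at 11.2 kg/ha (two-week-old seedlings; 22° C., 65-85% relative humidity). Seven-day visual rating relative to untreated plants, where 100 means complete kill.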

A further assay deals with Barley (Hordeum vulgare). The assay is described as follows: Pre-emergence soil surface spray, barley. It is filed as in vivo. The settings on record: soil surface spray 2.8 kg/ha, 21 days, 0=no effect, 100=complete kill. An outline of the steps:
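Herbicidal or growth regulatory effects were rated on a 0-100 scale after 21 days under 14 hours per day artificial illumination at 22° C. Before emergence, compost in which seeds had been sown received a surface spray of 2.8 kg active ingredient per hectare, applied in 450 liters per hectare.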

The test system of assay [1] is Pythium ultimum. The assay is described as follows: Fungal growth on the surface of soil infected with damping-off disease organism. It is filed as in vivo. The settings on record: 6 days, 25° C., 0-8 scale.
Assay [2] concerns Pythium ultimum. The assay is described as follows: Cabbage seedling emergence in soil infected with Pythium ultimum. It is filed as in vivo, Pythium ultimum (on cabbage, variety Flower of Spring). The settings on record: 6 days, 25° C., 0-8 scale. The essentials:
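Potting compost infested with one-week maize meal/sand Pythium ultimum culture (3 kg per 12 l soil), drenched with compound in Tween 20/water at 1500, 500, 150 or 50 ppm; 15 cabbage seeds sown per carton, 25° C, four replicates. After six days, soil-surface fungal growth and seedling emergence scored 0-8.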

With `CCCS(=O)(=O)N(c1c(C)cccc1C)C(C)C(=O)OCC` (stereo not drawn) [Example 24, N-(1-[ethoxycarbonyl]ethyl)-2',6'-dimethyl-1-propanesulphonanilide], the pest or weed control at 11200 g/ha with Peas (Pisum sativum) was 20%. In addition, the “growth regulatory or herbicidal effect score” value in the assay with Barley (Hordeum vulgare) was determined as 30. For the same compound, the “Mycelial Control Score” value in the assay on Pythium ultimum [1] (30 ppm) and with Pythium ultimum [1] (100 ppm) was 0 (<20% inhibition) throughout. Further, the “Germination Score” value is listed as 1 (20-34% inhibition) in the assay with Pythium ultimum [2] (30 ppm) and 5 (65-74% inhibition) in the assay on Pythium ultimum [2] (100 ppm).
